Data: patent publication US12215132B2, “Methods, compositions and uses thereof for reversing sarcopenia” (The Trustees of Columbia University in the City of New York, priority 2020, dated 2025)
“Also recorded” adds a separate entry of the source. Where two headings read alike, the source gives them in different places.

Assays:
[1] = system: dexamethasone-treated mice
Procedure: It was also further examined whether an osteocalcin treatment might preserve muscle function and/or muscle mass in a clinically relevant mouse model of sarcopenia.
In another recognized model of sarcopenia, the efficacy of osteocalcin has been tested. Specifically, dexamethasone delivered by pumps ([…]) for 28 days has been used in mice. Another group of mice received Dexamethasone plus osteocalcin also delivered by pumps.
FIG. 9A and FIG. 9B show exemplary graphs pf exemplary modeling sarcopenia in mice.

[2] = system: young and 12 to 15 month-old mice; conditions: data of WO 2016/081728, cited from earlier work
[3] = system: animal models; conditions: in vivo
[4] = system: Liver Factor 1; assay: Liver Factor 1 production during exercise; type: in vivo
Description: OCN signaling in the liver is required for exercise capacity (see FIG. 6). OCN enhances Liver Factor 1 production during exercise (see FIG. 7). Liver Factor 1 mediates OCN regulation of exercise capacity (see FIG. 8).

[5] = dexamethasone-treated mice, co-treatment with test substance
[6] = one-month chronic infusion of dexamethasone, mice

With N#Cc1ccc(N2CCC[C@@H]2[C@@H](O)C(F)(F)F)cc1C(F)(F)F [VK5211, reference compound] as the molecule, how does the muscle mass [1, 5] read?
Its muscle mass is “fully restored muscle mass to normal levels”.

And the “running capacity / exercise capacity” value [1, 5]?
Its value is “modest effect”.

Which “ability to run on a treadmill” value ([1]; mouse, in vivo) does the source give for C[C@@H]1C[C@H]2[C@@H]3CCC4=CC(=O)C=C[C@]4(C)[C@@]3(F)[C@@H](O)C[C@]2(C)[C@@]1(O)C(=O)CO [dexamethasone, reference compound] here?
The value was “decreased”.

And the muscle mass ([1]; mouse, in vivo)?
Its muscle mass is “decreased”.

What about the “decrease of gastrocnemius muscle mass” value [1, 6] of the same molecule?
Its value is 30%.

And the “reduction of running capacity” value [1, 6]?
The value was 50%.

With “osteocalcin: Osteocalcin, a bone-derived hormone; small (46-50 amino acid residues) bone specific protein (YLYQWLGAPVPYPDPLEPRREVCELNPDCDELADHIGFQEAYRR; listed as Homo sapiens)” as the molecule, how does the IL-6 ([1]; Dex-induced sarcopenia) read?
Its IL-6 is “favors IL-6”.

What about the “muscle function versus muscle mass; comparison with VK5211” value ([1]; Dex-induced sarcopenia) of the same molecule?
Its value is “outperforms”.

What about the “muscle function versus muscle mass; comparison with VK5211” value ([1]; Dex-induced sarcopenia, listed as OCN) of the same molecule?
Its value is “mainly targets muscle function”.

What about the muscle mass ([1]; dexamethasone-treated mice, co-treatment with test substance, listed as OCN) of the same molecule?
Its muscle mass is “marginal effect”.

What about the off-target effects ([1]; mouse, in vivo) of the same molecule?
The off-target effects was “no overt off-target effects”.

What about the “deleterious effect of dexamethasone on muscle function” value ([1]; osteocalcin given to mice that had already received dexamethasone for two weeks) of the same molecule?
The value was “partially revert”.

What about the exercise capacity ([2]; 12 to 15 month-old mice) of the same molecule?
Its exercise capacity is “confers to 15 months-old mice exercise capacity of 3 month-old mice; also recorded: confers to 12 to 15 month-old mice the exercise capacity of 3 month-old mice”.

What about the exercise capacity ([2]; young mice) of the same molecule?
Its exercise capacity is “increases the exercise capacity”.

And the negative side-effects [3]?
Its negative side-effects is “safe with no recorded negative side-effects”.

What about the “Liver Factor 1 production” value [4] of the same molecule?
Its value is “enhances”.
